Tests used:
[1] = tested on: HeLa (human cervix carcinoma) cells; assay: MTT cytotoxicity assay, HeLa; format: cell-based
Method: (§1) Fourteen new benzofuran derivatives were tested for their cytotoxic properties in K562, MOLT-4 (leukemia, suspension cells), HeLa (cervix carcinoma, adherent cells), and normal endothelial cells (HUVEC). First, we measured the viability of cells after 48 h incubation with the given compound at the concentration of 100 μM. Next, for compounds that reduced cancer cells survival for more than 50%, we determined IC50 values. Cells that were exposed to 1% DMSO (a vehicle) served as the control with 100% survival. Cells treated with 1 µM staurosporine served as the internal control of the cytotoxicity experiments.
(§2) Human umbilical vein endothelial cells (Life Technologies, Waltham, MA, USA) were cultured (according to the manufacturer instructions) in Medium 200 supplemented with Low Serum Growth Supplement. 1 × 10^4 HUVEC cells were seeded on each well on a 96-well plate (Nunc). The HeLa (human cervix carcinoma) K562 and MOLT-4 (leukemia) cells were cultured in RPMI 1640 medium supplemented with antibiotics and 10% fetal calf serum (HeLa, K562) in a 5% CO2-95% air atmosphere. 7 × 10^3 HeLa, K562, or MOLT-4 cells were seeded on each well on 96-well plate (Nunc). 24 h later cells were treated with the test compounds and then incubated for an additional 48 hours. Stock solutions of test compounds were freshly prepared in DMSO (dimethylsulfoxide). The final concentrations of compounds that were tested in the cell cultures were: 2 × 10^−1, 1 ×10^−1, 5 × 10^−2, 1 × 10^−2, 1 × 10^−3 and 1 × 10^−4 mM. The concentration of DMSO in the cell culture medium was 1%.
(§3) The values of IC50 (the concentration of test compound that is required to reduce the cell survival fraction to 50% of the control) were calculated from dose-response curves and used as a measure of cellular sensitivity to a given treatment.
(§4) The MTT [3-(4,5-dimethylthiazol-2-yl)-2,5-diphenyltetrazolium bromide; Sigma, St. Louis, MO, USA] assay determined the cytotoxicity of all the compounds, as described previously. Briefly, after 24 h or 48 h of incubation with the drug, the cells were treated with the MTT reagent, and incubation was continued for 2 h. MTT-formazan crystals were dissolved in 20% SDS and 50% DMF at pH 4.7 and absorbance was read at 570 and 650 nm on an ELISA-PLATE READER (FLUOstar Omega, BMG LABTECH GmbH, Ortenberg, Germany). As a control (100% viability), cells that were grown in the presence of medium vehicle only with 1% DMSO were used.

K562 (leukemia) cells = assay: MTT cytotoxicity assay, K562; format: cell-based, human; conditions: initial screening, 100 μM, 48 h
Method: as §1, §2, §3, §4

MOLT-4 (leukemia) cells = assay: MTT cytotoxicity assay, MOLT-4; format: cell-based, human
Method: as §1, §2, §3, §4

[2] = tested on: Human umbilical vein endothelial cells (HUVEC); assay: MTT cytotoxicity assay, HUVEC; format: cell-based
Method: as §1, §2, §3, §4

[3] = tested on: caspase 3/7 in K562 cells; assay: Apo-ONE Homogeneous Caspase-3/7 Assay in K562 cells; format: cell-based, human; conditions: compound at 5 × IC50 (staurosporine 1 µM), 18 h, 1% DMSO normalized to 1.0
Method: We have measured the activity of caspases 3 and 7 (caspase 3/7), which are markers of programmed cell death. […] The activity of caspase 3/7 was measured using pro-fluorescent peptide substrate.
20 × 10^3 K562 cells were seeded on each well of 96-well plate in RPMI 1640 medium supplemented with 10% fetal calf serum and antibiotics. Cells were grown for 24 h at 37 °C and 5% CO2. The test compounds were dissolved in DMSO and added to the cell culture. The concentration of tested benzo[b]furans in cell culture was 5 × IC50.
Cells treated with 1% DMSO served as a negative control, while cells incubated with staurosporine (a strong inducer of apoptosis) were used as a positive control. Cells were exposed to test compounds for 18 h at 37 °C and 5% CO2. Subsequently, Apo-ONE® Homogeneous Caspase-3/7 Assay (Promega, Madison, WI, USA) measured the activity of caspase 3 and 7, according to the manufacturer’s instructions. Briefly, the cells were lysed and incubated for 1.5 h with profluorescent substrate for caspase 3 and 7. Next, fluorescence was read at an excitation wavelength of 485 nm and emission of 520 nm with FLUOStar Omega plate reader (BMG-Labtech, Ortenberg, Germany).
Figure 5 Activity of caspase 3 and 7 in K562 cells treated with the test benzofurans 1c, 1e, 2d, 3d, or staurosporine for 18 h. Apoptosis was determined by Apo-ONE® Homogeneous Caspase-3/7 Assay (Promega, Madison, WI, USA). Abbreviations: DMSO—K562 cells treated with 1% DMSO. The caspase activation level in cells exposed to 1% DMSO was normalized to 1.0. Mean values +/− SD are shown.

[4] = tested on: plasmid DNA (pcDNA3.1 HisC); assay: Digestion of plasmid DNA with BamHI restriction nuclease; format: biochemical; conditions: 100 µM, overnight 37 °C, then BamHI 3 h; agarose gel
Excerpt: We hypothesized that a possible explanation of observed cytotoxicity might be due to an interaction of test benzofurans with genomic DNA (e.g., by intercalation). To verify this hypothesis, we investigated whether the test benzofurans have any effect on digestion of a plasmid DNA (pcDNA3.1 HisC) with endonuclease BamH1. pcDNA3.1 HisC contains a unique BamH1 restriction site which allows for plasmid linearization. Plasmid DNA exists in linear, superhelical, and circular forms that differ in electrophoretic mobility (Figure 6 lane 1). Plasmid DNA was converted to a linear form upon digestion with BamH1 (lane 2). […] In the presence of test compounds, pcDNA3.1 HisC was partially digested with Bam H1 restriction enzyme (Figure 6 lanes 4–7). Most of the plasmid DNA was converted to a linear form, however there is a circular form still present.
0.5 μg of plasmid DNA (pcDNAHisC, total length 5.5 kbp) containing a unique BamHI restriction site was dissolved in a 1× BamHI reaction buffer and then incubated overnight at 37 °C with the test compounds or daunorubicin, a strong intercalating agent, which was used as a positive control. The concentration of the test compounds and daunorubicin samples was 100 µM. In the next step, the reaction mixtures were digested with BamHI restriction endonuclease (2 U/μL) for 3 h at 37 °C. The total reaction volume was 10 μL. Products of the reaction were subjected to the 1% agarose gel electrophoresis in TBE buffer. The gel was stained with ethidium bromide and DNA fragments were visualized under a UV lamp (GBox, Syngene, Cambridge, UK).
Figure 6 Digestion of pcDNA3.1HisC (total length 5.5kbp) with BamH1 endonuclease. M—marker DNA; 1—not digested plasmid DNA; 2—plasmid DNA digested with BamH1 (DNA present in linear form); 3—plasmid DNA + daunorubicin + BamH1; 4—plasmid DNA + 1c + BamH1; 5—plasmid DNA + 2d + BamH1; 6—plasmid DNA + 1e + BamH1; and, 7—plasmid DNA + 3d + BamH1.

cancer cell lines = assay: MTT cytotoxicity, cancer cell lines overall; format: cell-based, human; conditions: compared to lead compounds VIII-X
Method: as §1, §2, §3, §4

[5] = tested on: healthy endothelial cells (HUVEC); parameters: method as in PMID 25482722, PMID 30465514; conditions: previous studies; cited from earlier work
cancer cells = tested on: cancer cells; parameters: method as in PMID 25482722, PMID 30465514; conditions: previous studies; cited from earlier work
K562 leukemic cell line = tested on: K562 leukemic cell line; parameters: method as in PMID 25482722, PMID 30465514; conditions: previous studies; cited from earlier work
HL-60 leukemic cell line = tested on: HL-60 leukemic cell line; parameters: method as in PMID 25482722, PMID 30465514; conditions: previous studies; cited from earlier work
HeLa cancer cells = tested on: HeLa cancer cells; parameters: method as in PMID 25482722, PMID 30465514; conditions: previous studies; cited from earlier work
[6] = initial screening, 100 μM, 48 h

SMILES: COC(=O)c1c(CBr)oc2cc(C(C)=O)c(O)cc12 [Compound 2d, Methyl 6-acetyl-2-(bromomethyl)-5-hydroxybenzofuran-3-carboxylate]
- IC50 ([1]; Homo sapiens, HeLa, 48 h incubation with cells, MTT): 35 µM
- reduction of viability of HeLa cells [1, 6]: more than 50%
- reduction of viability of K562 cells (K562 (leukemia) cells): more than 50%
- IC50 (MOLT-4 (leukemia) cells; Homo sapiens, MOLT-4, 48 h incubation with cells, MTT): 35 µM
- reduction of viability of MOLT-4 cells (MOLT-4 (leukemia) cells; [6]): more than 50%
- IC50 ([2]; Homo sapiens, HUVEC, 48 h incubation with cells, MTT): 30 µM
- cytotoxicity against human normal endothelial cells [2, 6]: cytotoxic
- increase in the activity of caspase 3/7 [3]: about two-fold
- inhibition of digestion of plasmid DNA with BamH1 / interaction with DNA [4]: to some extent, interact with DNA
- decrease of cytotoxicity against human cancer cells compared to the lead compounds VIII-X (cancer cell lines): 5–10 folds

SMILES: COC(=O)c1c(C)oc2cc(C(=O)C(Br)Br)c(O)c(Br)c12 [IX]
- toxicity towards endothelial cells (HUVEC) [5]: non-toxic
- IC50 towards cancer cells (cancer cells): in a few µM range

SMILES: COc1cc2c(CBr)c(C(C)=O)oc2c(C(C)=O)c1OC [VIII]
- IC50 (K562 leukemic cell line): 5 µM
- IC50 (HL-60 leukemic cell line): 100 nM
- IC50 (HeLa cancer cells): > 1 mM
- IC50 [5]: > 1 mM

SMILES: COC(=O)c1c(C)oc2cc(C(=O)C(Br)Br)c(OC)cc12 [X, methyl 6-(dibromoacetyl)-5-methoxy-2-methylbenzofuran-3-carboxylate]
- toxicity towards endothelial cells (HUVEC) [5]: non-toxic
- IC50 towards cancer cells (cancer cells): in a few µM range

— article PMC6514909, “Synthesis of New Derivatives of Benzofuran as Potential Anticancer Agents” (Molecules, 2019)
